From ChEMBL document CHEMBL4834424, “Targeting Chikungunya Virus Replication by Benzoannulene Inhibitors” (J Med Chem, 2021)
pEC50, pIC50: −log10 of the molar value. Converted amounts (≈) assume the structure as drawn.

Columns and labels:
[1] = (§1) Cytotoxicity against human NHDF cells assessed as cell viability measured after 24 hrs by Cell Titer Glo luminescent assay; assay type: cell-based; conditions: NHDF cells
[2] = Aqueous solubility of the compound; assay type: physicochemical
[3] = Octanol-aqueous buffer distribution coefficient, log D of the compound by LC-MS analysis; assay type: physicochemical
[4] = tested on: Chikungunya virus; experiment: (§2) Antiviral activity against CHIKV infected in human NHDF cells assessed as reduction in virus titer in cell supernatant by measuring inhibition of plaque formation using Vero cells at 10 uM pretreated with NHDF cells followed by infected with virus incubated for 24 hrs and measured following infection of supernatants with Vero cells for 48 hrs by plaque based methylene blue dye analysis; assay type: functional; conditions: time 72 hrs
[5] = Metabolic stability in mouse liver microsomes assessed as half life in presence of NADPH incubated up to 45 mins by LC-MS/MS analysis; assay type: ADME, Microsome; set-up: unit not given here; conditions: for half-life: liver microsomes
[6] = Metabolic stability in human liver microsomes assessed as half life in presence of NADPH incubated up to 45 mins by LC-MS/MS analysis; assay type: ADME, Microsome
[7] = tested on: Chikungunya virus; experiment: as §2, with “cells” for “cells at 10 uM”; assay type: functional, organism-based
[8] = biological target: Dihydroorotate dehydrogenase (quinone), mitochondrial (Homo sapiens, UniProt Q02127)
Sequence of Dihydroorotate dehydrogenase (quinone), mitochondrial (Q02127 whole entry): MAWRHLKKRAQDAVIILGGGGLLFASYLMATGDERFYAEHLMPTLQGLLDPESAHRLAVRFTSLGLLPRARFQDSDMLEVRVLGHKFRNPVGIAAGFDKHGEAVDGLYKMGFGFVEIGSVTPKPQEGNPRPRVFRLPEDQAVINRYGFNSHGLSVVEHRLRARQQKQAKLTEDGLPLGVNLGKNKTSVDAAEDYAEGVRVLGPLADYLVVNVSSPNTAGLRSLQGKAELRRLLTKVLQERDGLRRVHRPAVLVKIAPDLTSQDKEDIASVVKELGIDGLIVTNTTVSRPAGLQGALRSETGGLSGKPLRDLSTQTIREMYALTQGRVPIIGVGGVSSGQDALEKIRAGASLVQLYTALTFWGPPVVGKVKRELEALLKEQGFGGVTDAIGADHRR

[9] = tested on: NHDF; experiment: as §1; assay type: cell-based; conditions: nhdf, 24 h

Structure (SMILES)	CC50 at 24 h [1]	solubility ([2]; aqueous, read-out: solubility)	logD [3]	log(activity) [4]	half-life [5]	half-life [6]	t1/2 ([5]; microsomes, 0.75 h)	pEC50 [7]	solubility ([2]; buffer)	pIC50 [8]	CC50 [9]
CC(C)(C)c1ccc(C(=O)Nc2cc3c(cc2CO)CCCCC3)cc1	> 30 µM	< 1 µM	4	<1	1320	64 h					
CC(C)(C)c1ccc(C(=O)Nc2cc3c(cc2F)CCCCC3)cc1	> 30 µM	33 µM (≈ 11.2 µg/mL)	4	4.9		28 h	4	6.10			
Cc1cc2c(cc1NC(=O)c1ccc(C(C)(C)C)cc1)CCCCC2	> 30 µM	< 1 µM	4	3.5	660	63 h		5.62			
COc1nc2c(cc1C(=O)Nc1ccc(C(C)(C)C)cn1)CCCCC2	> 30 µM	< 1 µM	> 4.7	0.27	3960	88 h					
COc1nc2c(cc1C(=O)Nc1ncc(C(C)(C)C)cn1)CCCCC2	> 30 µM		3	1.95	1620	67 h		5.05	64 µM (≈ 22.7 µg/mL)		
COc1cc2c(nc1NC(=O)c1ccc(C(C)(C)C)cn1)CCCCC2	> 30 µM			4.05				5.54		< 4.52	
CC(C)(C)c1ccc(C(=O)Nc2ccc3c(c2)CCCCC3)cc1	> 30 µM		4	3.9	1380	33 h		6.15	35 µM (≈ 11.3 µg/mL)		
COc1cc2c(cc1C(=O)Nc1ccc(C(C)(C)C)cn1)CCCCC2										< 4.52	
COc1cc2c(cc1NC(=O)c1ccc(C(C)(C)O)cc1)CCCCC2	> 30 µM	8 µM (≈ 2.83 µg/mL)	4	1.6	1140	254 h		5.61			
CCOc1cc2c(cc1NC(=O)c1ccc(C(C)(C)C)cc1)CCCC2				1				5.11			3.86 µM
COc1cc2c(cc1NC(=O)c1ccc(C(C)(C)C(F)(F)F)cc1)CCCCC2	> 30 µM	< 1 µM	6	1.8	2100	106 h		5.46			
COc1nc2c(cc1C(=O)Nc1ccc(C(C)(C)C)cc1)CCCCC2	> 30 µM	1.8 µM (≈ 0.634 µg/mL)	4.6	1.3	2700	102 h					
CC(C)(C)c1ccc(C(=O)Nc2cc3c(cc2OCc2ccccn2)CCCCC3)cc1				<1							9.4 µM
